Read-outs that look alike come from different tables or passages of the source.
Key:
Format in all cases: biochemical
CDK2/CCNE1 = CDK2/CCNE1 (Homo sapiens, UniProt P24941); assay: CDK2 homogeneous time-resolved fluorescence (HTRF) kinase assay
Method in brief: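 Compounds were titrated 11-point, half-log from typically 10 μM against 3 nM CDK2/cyclin E1 at 1 mM ATP, with a 20 min enzyme preincubation. Phosphorylation of 50 nM ULight-4E-BP1 peptide over 60 min at 23 °C was detected by europium anti-phospho antibody TR-FRET.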

CDK4/CCND3 = CDK4/CCND3 (Homo sapiens, UniProt P11802); assay: CDK4 homogeneous time-resolved fluorescence (HTRF) kinase assay
Sequence of CDK4/CCND3 (P11802 whole entry): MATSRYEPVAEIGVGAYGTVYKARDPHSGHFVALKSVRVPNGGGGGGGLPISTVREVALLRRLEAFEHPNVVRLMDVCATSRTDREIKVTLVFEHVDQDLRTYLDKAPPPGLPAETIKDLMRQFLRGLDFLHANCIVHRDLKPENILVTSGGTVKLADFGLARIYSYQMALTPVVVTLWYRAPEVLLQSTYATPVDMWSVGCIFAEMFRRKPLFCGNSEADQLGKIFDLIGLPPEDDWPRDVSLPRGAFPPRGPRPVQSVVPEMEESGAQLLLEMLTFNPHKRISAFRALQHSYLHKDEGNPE
Sequence of CDK4/CCND3 (P30281 whole entry partner): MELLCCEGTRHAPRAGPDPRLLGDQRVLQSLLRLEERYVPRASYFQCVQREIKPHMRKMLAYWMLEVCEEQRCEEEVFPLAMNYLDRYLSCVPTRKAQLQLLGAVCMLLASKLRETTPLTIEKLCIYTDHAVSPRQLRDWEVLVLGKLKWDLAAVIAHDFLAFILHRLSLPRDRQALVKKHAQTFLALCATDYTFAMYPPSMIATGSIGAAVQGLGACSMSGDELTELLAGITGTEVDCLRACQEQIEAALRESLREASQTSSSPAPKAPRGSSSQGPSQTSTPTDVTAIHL
Method in brief: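 Steps: compound plus 1.5 nM CDK4/CCND3, 20 min, 23 °C; add 1 mM ATP and 50 nM ULight-4E-BP1 (Thr37/46) peptide, 60 min; stop with 10 mM EDTA; add 2 nM Eu anti-phospho antibody, 60 min; read 665 nm. IC50 from 11-point half-log series starting 10 μM.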

CDK6/CCND1 = CDK6/CCND1 (Homo sapiens, UniProt Q00534); assay: CDK6 homogeneous time-resolved fluorescence (HTRF) kinase assay
Sequence of CDK6/CCND1 (Q00534 whole entry): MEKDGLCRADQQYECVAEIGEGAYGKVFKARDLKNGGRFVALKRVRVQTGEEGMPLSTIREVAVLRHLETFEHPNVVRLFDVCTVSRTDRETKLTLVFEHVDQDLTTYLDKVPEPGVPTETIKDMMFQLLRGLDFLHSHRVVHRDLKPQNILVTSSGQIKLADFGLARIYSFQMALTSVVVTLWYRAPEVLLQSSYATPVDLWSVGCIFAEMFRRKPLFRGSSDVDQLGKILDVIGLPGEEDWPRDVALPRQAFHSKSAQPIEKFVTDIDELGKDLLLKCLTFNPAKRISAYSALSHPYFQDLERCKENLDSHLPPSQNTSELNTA
Sequence of CDK6/CCND1 (P24385 whole entry partner): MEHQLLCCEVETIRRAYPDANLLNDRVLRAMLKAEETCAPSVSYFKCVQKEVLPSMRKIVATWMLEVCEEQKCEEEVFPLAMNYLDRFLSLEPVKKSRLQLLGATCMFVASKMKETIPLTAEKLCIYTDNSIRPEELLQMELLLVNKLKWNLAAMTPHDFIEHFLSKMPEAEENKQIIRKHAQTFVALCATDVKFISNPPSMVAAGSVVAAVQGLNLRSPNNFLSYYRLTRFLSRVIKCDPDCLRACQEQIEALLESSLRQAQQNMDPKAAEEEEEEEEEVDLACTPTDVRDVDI
Method in brief: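 Enzyme pre-incubated 20 min at 23 °C with compound, then reacted 60 min at 23 °C with 1 mM ATP and 50 nM ULight-4E-BP1 (Thr37/46) peptide; 1 nM enzyme, 1% DMSO. EDTA-stopped, Eu-anti-phospho antibody TR-FRET read (665 nm or 665/615 ratio); 11-point half-log titration from 10 μM gave IC50.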

CDK1/CCNB1 = CDK1/CCNB1 (Homo sapiens, UniProt P06493); assay: CDK1 homogeneous time-resolved fluorescence (HTRF) kinase assay
Sequence of CDK1/CCNB1 (P06493 whole entry): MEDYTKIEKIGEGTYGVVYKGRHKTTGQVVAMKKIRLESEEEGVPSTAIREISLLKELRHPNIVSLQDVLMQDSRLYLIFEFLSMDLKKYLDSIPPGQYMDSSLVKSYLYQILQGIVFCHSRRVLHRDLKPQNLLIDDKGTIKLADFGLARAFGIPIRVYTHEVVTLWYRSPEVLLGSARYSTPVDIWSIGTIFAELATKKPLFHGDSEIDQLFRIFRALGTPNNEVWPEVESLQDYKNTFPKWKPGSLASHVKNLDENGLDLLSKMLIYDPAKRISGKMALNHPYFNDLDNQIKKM
Sequence of CDK1/CCNB1 (P14635 whole entry partner): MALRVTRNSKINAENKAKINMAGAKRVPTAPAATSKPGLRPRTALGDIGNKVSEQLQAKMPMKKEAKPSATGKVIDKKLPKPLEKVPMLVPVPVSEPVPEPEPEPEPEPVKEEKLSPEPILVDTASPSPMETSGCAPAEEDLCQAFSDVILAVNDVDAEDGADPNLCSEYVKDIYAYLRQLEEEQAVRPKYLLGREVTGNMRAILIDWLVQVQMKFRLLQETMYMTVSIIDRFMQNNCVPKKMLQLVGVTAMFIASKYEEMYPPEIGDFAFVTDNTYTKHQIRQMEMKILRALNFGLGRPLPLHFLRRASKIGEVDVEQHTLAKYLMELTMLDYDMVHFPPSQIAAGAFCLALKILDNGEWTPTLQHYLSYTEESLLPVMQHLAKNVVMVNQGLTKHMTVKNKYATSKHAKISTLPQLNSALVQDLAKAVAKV
Method in brief: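 High-ATP (1 mM) HTRF assay with 0.5 nM CDK1/cyclin B1 and 50 nM ULight-4E-BP1 (Thr37/46) substrate, 60 min at 23 °C after 20-min compound preincubation. IC50 values come from dose-response curves.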

[1] = CDK4/CCND, x = IC50 >250 nM, read-out: CDK4/CCND IC50 (>250 nM column)
[2] = CDK6/CCND, x = IC50 >250 nM, read-out: CDK6/CCND IC50 (>250 nM column)
[3] = CDK1/CCNB, x = IC50 >250 nM, read-out: CDK1/CCNB IC50 (>250 nM column)
[4] = 25-250 nM, CDK2/CCNE, read-out: CDK2/CCNE IC50, 25-250 nM
[5] = >250 nM, CDK4/CCND, read-out: CDK4/CCND IC50, >250 nM
[6] = >250 nM, CDK6/CCND, 1 mM ATP, read-out: CDK6/CCND IC50, >250 nM
[7] = >250 nM, CDK1/CCNB, read-out: CDK1/CCNB IC50 >250 nM
[8] = CDK2/CCNE, x = IC50 <25 nM, read-out: CDK2/CCNE IC50 (<25 nM)

Row | SMILES | IC50 (CDK6/CCND1; [2]) [µM] | IC50 (CDK1/CCNB1; [3]) [µM] | IC50 (CDK2/CCNE1; [4]) [µM] | IC50 (CDK4/CCND3; [5]) [µM] | IC50 (CDK6/CCND1; [6]) [µM] | IC50 (CDK1/CCNB1; [7]) [µM] | other results
1 | CN1CCN(c2ccc(C#Cc3nccc4cnc(Nc5ccc(S(N)(=O)=O)cc5)cc34)cc2)CC1 [Ex 876, 4-((5-((4-(4-methylpiperazin-1-yl)phenyl)ethynyl)-2,6-naphthyridin-3-yl)amino)benzenesulfonamide] | – | – | – | – | – | – | IC50 (CDK2/CCNE1; <25 nM, CDK2/CCNE, read-out: CDK2/CCNE IC50, <25 nM): < 0.025 µM; IC50 (CDK4/CCND3; 25-250 nM, CDK4/CCND, read-out: CDK4/CCND IC50, 25-250 nM): 0.025 to 0.25 µM; IC50 (CDK6/CCND1; 25-250 nM, CDK6/CCND, 1 mM ATP, read-out: CDK6/CCND IC50, 25-250 nM): 0.025 to 0.25 µM; IC50 (CDK1/CCNB1; 25-250 nM, CDK1/CCNB, read-out: CDK1/CCNB IC50, 25-250 nM): 0.025 to 0.25 µM
2 | CC(=O)Nc1ncc(C#Cc2nccc3cnc(Nc4ccc(S(C)(=O)=O)cc4)cc23)s1 [Ex 505, N-(5-((7-((4-(methylsulfonyl)phenyl)amino)-2,6-naphthyridin-1-yl)ethynyl)thiazol-2-yl)acetamide] | > 0.25 | > 0.25 | – | – | – | – | IC50 (CDK2/CCNE1; CDK2/CCNE, x = IC50 25-250 nM, read-out: CDK2/CCNE IC50 (25-250 nM)): 0.025 to 0.25 µM; IC50 (CDK4/CCND3; [1]): > 0.25 µM
3 | CCC1(CC)C(=O)Nc2cc(C#Cc3nccc4cnc(Nc5ccc(S(=N)(=O)C6CCC6)cc5)cc34)ccc21 (single isomer, unassigned) [Ex 412, 6-((7-((4-(cyclobutanesulfonimidoyl)phenyl)amino)-2,6-naphthyridin-1-yl)ethynyl)-3,3-diethylindolin-2-one] | > 0.25 | > 0.25 | – | – | – | – | IC50 (CDK2/CCNE1; [8]): < 0.025 µM; IC50 (CDK4/CCND3; CDK4/CCND, x = IC50 25-250 nM, read-out: CDK4/CCND IC50 (25-250 nM)): 0.025 to 0.25 µM
4 | CS(=O)(=O)N1CCC(Nc2cc3c(OCc4ccccc4)nccc3cn2)CC1 [Example 11, 5-(benzyloxy)-N-(1-(methylsulfonyl)piperidin-4-yl)-2,6-naphthyridin-3-amine] | – | – | – | – | – | – | IC50 (CDK2/CCNE1; CDK2/CCNE, 25-250 nM marked x, read-out: CDK2/CCNE IC50 25-250 nM): 0.025 to 0.25 µM; IC50 (CDK4/CCND3; CDK4/CCND, <25 nM, read-out: CDK4/CCND IC50 <25 nM): < 0.025 µM; IC50 (CDK6/CCND1; CDK6/CCND, <25 nM, read-out: CDK6/CCND IC50 <25 nM): < 0.025 µM; IC50 (CDK1/CCNB1; CDK1/CCNB, 25-250 nM marked x, read-out: CDK1/CCNB IC50 25-250 nM): 0.025 to 0.25 µM
5 | Cc1c(-c2nccc3cnc(Nc4ccc(S(C)(=O)=O)cc4)nc23)ccc2nn(C)cc12 [Example 965, 8-(2,4-dimethyl-2H-indazol-5-yl)-N-(4-(methylsulfonyl)phenyl)pyrido[3,4-d]pyrimidin-2-amine] | – | – | – | – | – | – | IC50 (CDK2/CCNE1; 3 nM CDK2/CCNE1, 1 mM ATP, read-out: CDK2/CCNE IC50 <25 nM): < 0.025 µM; IC50 (CDK4/CCND3; 1.5 nM CDK4/CCND3, 1 mM ATP, read-out: CDK4/CCND IC50 >250 nM): > 0.25 µM; IC50 (CDK6/CCND1; 1 nM CDK6/CCND1, 1 mM ATP, read-out: CDK6/CCND IC50 >250 nM): > 0.25 µM; IC50 (CDK1/CCNB1; 0.5 nM CDK1/CCNB1, 1 mM ATP, read-out: CDK1/CCNB IC50 >250 nM): > 0.25 µM

Further lines, with some results ahead:

Row | IC50 (CDK6/CCND1; [2]) [µM] | IC50 (CDK1/CCNB1; [3]) [µM] | IC50 (CDK2/CCNE1; [4]) [µM] | IC50 (CDK4/CCND3; [5]) [µM] | IC50 (CDK6/CCND1; [6]) [µM] | IC50 (CDK1/CCNB1; [7]) [µM] | SMILES | other results
6 | – | – | 0.025 to 0.25 | > 0.25 | > 0.25 | > 0.25 | COc1ccc(NS(=O)(=O)c2ccc(Nc3cc4c(-c5ccc6c(cnn6CC(O)(C(F)(F)F)C(F)(F)F)c5C)nccc4cn3)cc2)cc1C(C)(C)O [Ex 709, N-(3-(2-hydroxypropan-2-yl)-4-methoxyphenyl)-4-((5-(4-methyl-1-(3,3,3-trifluoro-2-hydroxy-2-(trifluoromethyl)propyl)-1H-indazol-5-yl)-2,6-naphthyridin-3-yl)amino)benzenesulfonamide] | –
7 | > 0.25 | > 0.25 | – | – | – | – | CS(=O)(=O)c1ccc(Nc2cc3c(C#Cc4ccc(C#N)cc4N)nccc3cn2)cc1 [Ex 567, 3-amino-4-((7-((4-(methylsulfonyl)phenyl)amino)-2,6-naphthyridin-1-yl)ethynyl)benzonitrile] | IC50 (CDK2/CCNE1; [8]): < 0.025 µM; IC50 (CDK4/CCND3; [1]): > 0.25 µM
8 | – | – | 0.025 to 0.25 | > 0.25 | > 0.25 | > 0.25 | Cc1c(-c2nccc3cnc(Nc4cccc5ccccc45)cc23)ccc2c1cnn2CC(C)(C)O [Ex 916, 2-methyl-1-(4-methyl-5-(7-(naphthalen-1-ylamino)-2,6-naphthyridin-1-yl)-1H-indazol-1-yl)propan-2-ol] | –
9 | – | – | 0.025 to 0.25 | > 0.25 | > 0.25 | > 0.25 | Cc1c(-c2ncc(F)c3cnc(Nc4ccc(S(C)(=O)=O)cc4)cc23)ccc2c1cnn2CC(O)(C(F)(F)F)C(F)(F)F [Ex 757, 1,1,1,3,3,3-hexafluoro-2-((5-(4-fluoro-7-((4-(methylsulfonyl)phenyl)amino)-2,6-naphthyridin-1-yl)-4-methyl-1H-indazol-1-yl)methyl)propan-2-ol] | –

Source: US20260325533A1, “CDK INHIBITOR COMPOUNDS” (ALEKSIA THERAPEUTICS, INC., priority 2023, published 2026)
